According to ChEMBL document CHEMBL4630908 (2021):
Calls of active or inactive are those of the source. The rule behind the calls is not given here.

How the values were obtained:
[1] = biological target: T1, Bromodomain-containing protein 2 (Homo sapiens, UniProt P25440); test: TR-FRET assay (BRD2 BD2)
Target sequence in this assay (P25440 whole entry): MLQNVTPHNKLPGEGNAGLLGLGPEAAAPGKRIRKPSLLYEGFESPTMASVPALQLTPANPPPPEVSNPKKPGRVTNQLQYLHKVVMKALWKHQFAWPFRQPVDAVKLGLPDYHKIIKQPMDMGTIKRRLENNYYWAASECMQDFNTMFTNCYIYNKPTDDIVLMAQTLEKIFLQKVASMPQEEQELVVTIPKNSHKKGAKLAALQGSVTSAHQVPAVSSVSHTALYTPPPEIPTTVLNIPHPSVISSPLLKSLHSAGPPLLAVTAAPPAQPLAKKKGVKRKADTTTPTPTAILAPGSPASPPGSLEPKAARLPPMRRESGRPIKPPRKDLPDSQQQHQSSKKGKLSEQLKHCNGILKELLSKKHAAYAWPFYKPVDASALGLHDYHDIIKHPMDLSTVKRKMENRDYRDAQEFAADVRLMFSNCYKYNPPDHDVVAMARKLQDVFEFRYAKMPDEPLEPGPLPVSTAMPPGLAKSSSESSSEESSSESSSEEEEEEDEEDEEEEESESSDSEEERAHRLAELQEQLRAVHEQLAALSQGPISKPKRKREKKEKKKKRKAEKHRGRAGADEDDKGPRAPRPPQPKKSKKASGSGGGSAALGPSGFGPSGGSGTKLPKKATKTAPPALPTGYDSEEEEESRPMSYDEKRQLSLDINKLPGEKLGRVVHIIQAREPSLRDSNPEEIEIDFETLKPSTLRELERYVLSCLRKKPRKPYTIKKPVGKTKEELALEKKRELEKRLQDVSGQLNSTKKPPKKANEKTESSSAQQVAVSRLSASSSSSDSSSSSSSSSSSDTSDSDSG

[2] = biological target: T2, Bromodomain testis-specific protein (Homo sapiens, UniProt Q58F21); test: TR-FRET assay (BRDT BD1)
[3] = biological target: T1, Bromodomain-containing protein 2; test: BET mutant TR-FRET assay (BRD2 BD1)
Target sequence in this assay (P25440 whole entry, looked up, change not shown): as the sequence (P25440 whole entry) above

[4] = biological target: T1, Bromodomain-containing protein 2; test: BET mutant TR-FRET assay (BRD2 BD2)
Target sequence in this assay (P25440 whole entry, looked up, change not shown): as the sequence (P25440 whole entry) above

[5] = biological target: T3, Bromodomain-containing protein 3 (Homo sapiens, UniProt Q15059); test: BET mutant TR-FRETassay (BRD3 BD1)
Target sequence in this assay (Q15059 2-726 limits assumed, change not shown): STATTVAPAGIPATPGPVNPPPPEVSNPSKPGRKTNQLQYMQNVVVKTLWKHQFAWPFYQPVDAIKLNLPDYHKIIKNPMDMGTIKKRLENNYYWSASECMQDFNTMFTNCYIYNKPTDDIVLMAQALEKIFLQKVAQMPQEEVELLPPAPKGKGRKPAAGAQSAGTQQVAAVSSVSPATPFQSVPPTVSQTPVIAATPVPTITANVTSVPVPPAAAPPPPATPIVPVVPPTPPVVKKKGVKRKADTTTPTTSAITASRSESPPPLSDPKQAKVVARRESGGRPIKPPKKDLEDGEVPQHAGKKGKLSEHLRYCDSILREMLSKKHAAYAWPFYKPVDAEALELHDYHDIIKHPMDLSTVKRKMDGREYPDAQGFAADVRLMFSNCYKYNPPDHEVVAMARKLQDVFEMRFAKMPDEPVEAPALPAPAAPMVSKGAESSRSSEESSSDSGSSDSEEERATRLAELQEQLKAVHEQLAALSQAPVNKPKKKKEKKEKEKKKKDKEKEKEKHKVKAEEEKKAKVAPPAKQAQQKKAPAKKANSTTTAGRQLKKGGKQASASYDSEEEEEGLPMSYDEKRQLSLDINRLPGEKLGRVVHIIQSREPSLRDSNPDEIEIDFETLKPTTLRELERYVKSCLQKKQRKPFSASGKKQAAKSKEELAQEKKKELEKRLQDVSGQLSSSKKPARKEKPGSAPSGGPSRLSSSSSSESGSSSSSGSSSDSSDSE

[6] = biological target: T3, Bromodomain-containing protein 3; test: BET mutant TR-FRET assay (BRD3 BD2)
Target sequence in this assay (Q15059 2-726 limits assumed, change not shown): as above

[7] = biological target: T2, Bromodomain testis-specific protein; test: BET mutant TR-FRET assay (BRDT BD2)
[8] = biological target: T3, Bromodomain-containing protein 3; test: BRD3 BD1 Bromoscan (DiscoverX)
Target sequence in this assay (Q15059 whole entry): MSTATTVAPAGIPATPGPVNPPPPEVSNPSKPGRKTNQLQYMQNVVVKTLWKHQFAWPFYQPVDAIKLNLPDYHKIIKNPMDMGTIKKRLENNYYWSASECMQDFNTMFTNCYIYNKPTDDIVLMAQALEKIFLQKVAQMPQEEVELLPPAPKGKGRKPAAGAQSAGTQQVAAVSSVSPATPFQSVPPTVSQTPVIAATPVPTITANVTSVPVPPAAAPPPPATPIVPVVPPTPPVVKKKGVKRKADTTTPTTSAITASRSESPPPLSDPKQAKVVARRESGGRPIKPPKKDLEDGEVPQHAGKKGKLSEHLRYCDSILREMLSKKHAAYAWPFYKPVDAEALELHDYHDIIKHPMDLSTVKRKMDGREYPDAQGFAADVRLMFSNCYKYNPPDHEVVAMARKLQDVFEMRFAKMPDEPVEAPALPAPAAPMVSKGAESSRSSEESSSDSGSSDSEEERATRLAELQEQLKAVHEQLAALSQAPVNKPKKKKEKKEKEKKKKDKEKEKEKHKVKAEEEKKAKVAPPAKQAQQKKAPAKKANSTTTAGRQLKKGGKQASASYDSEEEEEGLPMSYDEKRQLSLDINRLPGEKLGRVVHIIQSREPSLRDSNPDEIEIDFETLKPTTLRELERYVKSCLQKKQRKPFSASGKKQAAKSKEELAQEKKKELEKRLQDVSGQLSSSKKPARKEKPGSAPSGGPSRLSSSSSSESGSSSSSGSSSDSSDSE

[9] = biological target: T3, Bromodomain-containing protein 3; test: BRD3 BD2 Bromoscan (DiscoverX)
Target sequence in this assay (Q15059 whole entry): as above

C-C motif chemokine 2 = C-C motif chemokine 2 (Homo sapiens, UniProt P13500); test: In vitro inhibition of MCP-1 in Lipopolysaccharide-stimulated human whole blood; assay type: tissue-based
[10] = biological target: ATPase family AAA domain-containing protein 2 (Homo sapiens, UniProt Q6PL18); test: ATAD2A DiscoverX BROMOscan
[11] = biological target: ATPase family AAA domain-containing protein 2B (Homo sapiens, UniProt Q9ULI0); test: ATAD2B DiscoverX BROMOscan
[12] = biological target: Bromodomain adjacent to zinc finger domain protein 2A (Homo sapiens, UniProt Q9UIF9); test: BAZ2A DiscoverX BROMOscan
[13] = biological target: Bromodomain adjacent to zinc finger domain protein 2B (Homo sapiens, UniProt Q9UIF8); test: BAZ2B DiscoverX BROMOscan
[14] = biological target: T1, Bromodomain-containing protein 2; test: BRD2(1) DiscoverX BROMOscan
Target sequence in this assay (P25440 whole entry): as the sequence (P25440 whole entry) above

[15] = biological target: Bromodomain-containing protein 8 (Homo sapiens, UniProt Q9H0E9); test: BRD8(2) DiscoverX BROMOscan
[16] = biological target: Bromodomain-containing protein 9 (Homo sapiens, UniProt Q9H8M2); test: BRD9 DiscoverX BROMOscan
[17] = biological target: T2, Bromodomain testis-specific protein; test: BRDT(1) DiscoverX BROMOscan
Peregrin = Peregrin (Homo sapiens, UniProt P55201); test: BRPF1 DiscoverX BROMOscan
CREB-binding protein = CREB-binding protein (Homo sapiens, UniProt Q92793); test: CREBBP DiscoverX BROMOscan
[18] = biological target: Histone acetyltransferase p300 (Homo sapiens, UniProt Q09472); test: EP300 DiscoverX BROMOscan
[19] = biological target: Histone acetyltransferase KAT2A (Homo sapiens, UniProt Q92830); test: GCN5L2 DiscoverX BROMOscan
Protein polybromo-1 [20] = biological target: T4, Protein polybromo-1 (Homo sapiens, UniProt Q86U86); test: PBRM1(2) DiscoverX BROMOscan
Protein polybromo-1 [21] = biological target: T4, Protein polybromo-1; test: PBRM1(5) DiscoverX BROMOscan
[22] = biological target: SWI/SNF-related matrix-associated actin-dependent regulator of chromatin subfamily A member 4 (Homo sapiens, UniProt P51532); test: SMARCA4 DiscoverX BROMOscan
[23] = biological target: Transcription initiation factor TFIID subunit 1 (Homo sapiens, UniProt P21675); test: TAF1(2) DiscoverX BROMOscan
[24] = biological target: Transcription intermediary factor 1-alpha (Homo sapiens, UniProt O15164); test: TRIM24(BROMO.) DiscoverX BROMOscan
[25] = biological target: GABA-A receptor; anion channel; test: Cross screening panel; assay type: protein-complex assay
[26] = biological target: 5-hydroxytryptamine receptor 1A (Homo sapiens) (UniProt P08908); conditions: Compound concentration 10.0 uM
[27] = biological target: 5-hydroxytryptamine receptor 1B (Homo sapiens, UniProt P28222); conditions: Compound concentration 10.0 uM
[28] = biological target: 5-hydroxytryptamine receptor 1D (Homo sapiens, UniProt P28221); conditions: Compound concentration 10.0 uM
[29] = biological target: 5-hydroxytryptamine receptor 2B (Homo sapiens) (UniProt P41595); conditions: Compound concentration 10.0 uM
[30] = biological target: 5-hydroxytryptamine receptor 2C (Homo sapiens) (UniProt P28335); conditions: Compound concentration 10.0 uM
[31] = biological target: 5-hydroxytryptamine receptor 5A (Homo sapiens) (UniProt P47898); conditions: Compound concentration 10.0 uM
[32] = biological target: 5-hydroxytryptamine receptor 6 (Homo sapiens) (UniProt P50406); conditions: Compound concentration 10.0 uM
[33] = biological target: 5-hydroxytryptamine receptor 7 (Homo sapiens) (UniProt P34969); conditions: Compound concentration 10.0 uM
[34] = biological target: D(4) dopamine receptor (Homo sapiens) (UniProt P21917); conditions: Compound concentration 10.0 uM
[35] = biological target: D(1B) dopamine receptor (Homo sapiens) (UniProt P21918); conditions: Compound concentration 10.0 uM
[36] = biological target: Sodium-dependent noradrenaline transporter (Homo sapiens) (UniProt P23975); conditions: Compound concentration 10.0 uM
[37] = biological target: Sodium-dependent dopamine transporter (Homo sapiens) (UniProt Q01959); conditions: Compound concentration 10.0 uM
Mu-type opioid receptor = Mu-type opioid receptor (Homo sapiens, UniProt P35372); conditions: Compound concentration 10.0 uM
[38] = biological target: Delta-type opioid receptor (Homo sapiens) (UniProt P41143); conditions: Compound concentration 10.0 uM
[39] = biological target: Histamine H2 receptor (Homo sapiens) (UniProt P25021); conditions: Compound concentration 10.0 uM
[40] = biological target: Histamine H4 receptor (Homo sapiens) (UniProt Q9H3N8); conditions: Compound concentration 10.0 uM
[41] = biological target: Alpha-2C adrenergic receptor (Homo sapiens) (UniProt P18825); conditions: Compound concentration 10.0 uM
[42] = biological target: Beta-1 adrenergic receptor (Homo sapiens) (UniProt P08588); conditions: Compound concentration 10.0 uM
[43] = biological target: Muscarinic acetylcholine receptor M1 (Homo sapiens) (UniProt P11229); conditions: Compound concentration 10.0 uM
[44] = biological target: Muscarinic acetylcholine receptor M4 (Homo sapiens) (UniProt P08173); conditions: Compound concentration 10.0 uM
[45] = biological target: Beta-3 adrenergic receptor (Homo sapiens) (UniProt P13945); conditions: Compound concentration 10.0 uM
Rattus norvegicus = organism: Rattus norvegicus; conditions: Compound concentration 10.0 uM
[46] = biological target: Alpha-1D adrenergic receptor (Homo sapiens) (UniProt P25100); conditions: Compound concentration 10.0 uM
[47] = biological target: Sigma intracellular receptor 2 (Homo sapiens) (UniProt Q5BJF2); conditions: Compound concentration 10.0 uM
[48] = biological target: Sigma non-opioid intracellular receptor 1 (Homo sapiens) (UniProt Q99720); conditions: Compound concentration 10.0 uM

T4 sequence (Q86U86 whole entry): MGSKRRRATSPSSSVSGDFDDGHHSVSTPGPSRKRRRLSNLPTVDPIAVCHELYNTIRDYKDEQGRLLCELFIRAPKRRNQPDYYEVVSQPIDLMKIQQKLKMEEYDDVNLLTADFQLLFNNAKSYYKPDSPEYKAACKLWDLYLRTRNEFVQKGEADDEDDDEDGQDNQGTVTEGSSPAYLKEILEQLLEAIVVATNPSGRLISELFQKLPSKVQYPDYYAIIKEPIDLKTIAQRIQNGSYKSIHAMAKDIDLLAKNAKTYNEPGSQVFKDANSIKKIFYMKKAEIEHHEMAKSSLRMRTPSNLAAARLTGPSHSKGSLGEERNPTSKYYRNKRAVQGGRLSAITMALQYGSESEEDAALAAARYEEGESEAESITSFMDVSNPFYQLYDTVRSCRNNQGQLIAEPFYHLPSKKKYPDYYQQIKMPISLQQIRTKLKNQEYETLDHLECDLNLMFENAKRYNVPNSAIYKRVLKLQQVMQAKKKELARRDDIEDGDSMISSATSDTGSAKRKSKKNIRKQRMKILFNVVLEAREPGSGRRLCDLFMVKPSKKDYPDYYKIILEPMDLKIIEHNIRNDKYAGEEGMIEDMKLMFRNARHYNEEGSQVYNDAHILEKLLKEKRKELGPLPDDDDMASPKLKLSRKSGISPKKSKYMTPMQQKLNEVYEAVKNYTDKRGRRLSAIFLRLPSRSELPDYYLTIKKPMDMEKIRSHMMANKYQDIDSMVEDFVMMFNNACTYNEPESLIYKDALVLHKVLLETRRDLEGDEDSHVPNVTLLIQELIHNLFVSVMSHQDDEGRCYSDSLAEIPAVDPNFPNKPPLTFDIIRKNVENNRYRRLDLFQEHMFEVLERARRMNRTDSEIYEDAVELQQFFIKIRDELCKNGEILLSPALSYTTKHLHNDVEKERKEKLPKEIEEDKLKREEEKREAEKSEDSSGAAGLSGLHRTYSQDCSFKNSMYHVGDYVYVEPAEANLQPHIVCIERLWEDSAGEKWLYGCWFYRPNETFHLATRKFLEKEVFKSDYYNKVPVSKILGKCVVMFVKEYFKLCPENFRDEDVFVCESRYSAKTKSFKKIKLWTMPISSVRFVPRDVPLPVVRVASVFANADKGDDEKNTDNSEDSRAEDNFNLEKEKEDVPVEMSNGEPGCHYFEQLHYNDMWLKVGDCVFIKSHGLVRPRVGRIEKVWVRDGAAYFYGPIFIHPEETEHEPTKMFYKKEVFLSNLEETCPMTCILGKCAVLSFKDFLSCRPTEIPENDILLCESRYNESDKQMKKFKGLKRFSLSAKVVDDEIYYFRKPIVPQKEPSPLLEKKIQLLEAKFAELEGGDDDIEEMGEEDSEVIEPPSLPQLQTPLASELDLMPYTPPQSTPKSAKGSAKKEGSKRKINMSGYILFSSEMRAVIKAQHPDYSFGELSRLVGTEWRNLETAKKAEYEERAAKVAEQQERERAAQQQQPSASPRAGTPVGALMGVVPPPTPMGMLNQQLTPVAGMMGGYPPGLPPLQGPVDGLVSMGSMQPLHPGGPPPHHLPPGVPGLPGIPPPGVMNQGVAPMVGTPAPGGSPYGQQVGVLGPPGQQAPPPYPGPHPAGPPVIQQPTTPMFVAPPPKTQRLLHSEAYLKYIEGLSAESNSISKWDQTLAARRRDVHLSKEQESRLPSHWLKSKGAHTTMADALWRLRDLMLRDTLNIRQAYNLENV
Sequence of C-C motif chemokine 2 (P13500 whole entry, the tested form may be a part): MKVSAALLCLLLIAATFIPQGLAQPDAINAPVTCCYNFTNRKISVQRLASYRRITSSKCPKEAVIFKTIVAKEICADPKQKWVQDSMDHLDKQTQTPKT

Structure (SMILES): CC(=O)Nc1c(F)cc(C(=O)N[C@H]2CC[C@H](O)CC2)cc1O[C@@H](C)c1ccccc1 [GSK046]
- IC50 [1]: 0.264 µM (active)
- IC50 [2]: > 50.1 µM (not active)
- pIC50 [3]: 5
- pIC50 [4]: 6.6
- pIC50 [5]: 4.4
- pIC50 [6]: 7
- pIC50 [7]: 6.7
- Kd [8]: 2.08 µM (not active)
- Kd [9]: 0.032 µM (active)
- IC50 (C-C motif chemokine 2): 0.316 µM (active)
- Kd [10]: 30 µM
- Kd [11]: 30 µM
- Kd [12]: 30 µM
- Kd [13]: 30 µM
- Kd [14]: 1.62 µM
- Kd [15]: 30 µM
- Kd [16]: 30 µM
- Kd [17]: 2.45 µM
- Kd (Peregrin): 30 µM
- Kd (CREB-binding protein): 30 µM
- Kd [18]: 30 µM
- Kd [19]: 30 µM
- Kd (Protein polybromo-1 [20]): 30 µM
- Kd (Protein polybromo-1 [21]): 30 µM
- Kd [22]: 30 µM
- Kd [23]: 30 µM
- Kd [24]: 30 µM
- pEC50 [25]: < 4
- inhibition [26]: -8.96%
- inhibition [27]: 11.6%
- inhibition [28]: 84.2%
- inhibition [29]: -6.98%
- inhibition [30]: 14%
- inhibition [31]: -8.96%
- inhibition [32]: 11.4%
- inhibition [33]: 17.6%
- inhibition [34]: 36%
- inhibition [35]: 21.4%
- inhibition [36]: -0.92%
- inhibition [37]: 3.3%
- inhibition (Mu-type opioid receptor): 20.4%
- inhibition [38]: 27.1%
- inhibition [39]: -7.57%
- inhibition [40]: 20.1%
- inhibition [41]: -0.86%
- inhibition [42]: -6.85%
- inhibition [43]: -4.64%
- inhibition [44]: -0.27%
- inhibition [45]: 17.5%
- inhibition (Rattus norvegicus): 5.68%
- inhibition [46]: -6.01%
- inhibition [47]: -0.94%
- inhibition [48]: 6.84%
